The target of data set [1] is T1, TRPV1 receptor (Rattus norvegicus, UniProt O35433). In words: TRPV1 receptor modulation in the rat vas deferens, EFS-induced contraction (Assay 1). Particulars: electrical field stimulation, read-out: Inhibition of EFS response relative to capsaicin. As to the method:
Wistar derived male rats (275±25 g) were suppressed by CO2 overexposure. The vas deferens was removed, placed in Krebs solution, pH 7.4 (composition in g/l: NaCl 6.89, KCl 0.35, CaCl2 0.277, KH2PO4 0.163, MgSO4.7H2O 0.296, NaHCO3 2.1 glucose 1.8) and excess fat and connective tissue removed. The portion of the vas deferens closest to the prostate was cut in half and each half was placed under 1 g tension in a 10 ml bath containing Krebs solution at 32° C. The tissue was contracted by electrical field stimulation (EFS; 60% of maximum stimulation, 0.015 Hz, 0.5 ms in duration) and contractile responses were measured.

In data set [2] the target is T2, 5-lipoxygenase (Homo sapiens, UniProt P09917).
T2 construct: endogenous in cells; host or cells: human peripheral blood mononuclear leukocytes (PBMLs)
T2 sequence (P09917 1-674): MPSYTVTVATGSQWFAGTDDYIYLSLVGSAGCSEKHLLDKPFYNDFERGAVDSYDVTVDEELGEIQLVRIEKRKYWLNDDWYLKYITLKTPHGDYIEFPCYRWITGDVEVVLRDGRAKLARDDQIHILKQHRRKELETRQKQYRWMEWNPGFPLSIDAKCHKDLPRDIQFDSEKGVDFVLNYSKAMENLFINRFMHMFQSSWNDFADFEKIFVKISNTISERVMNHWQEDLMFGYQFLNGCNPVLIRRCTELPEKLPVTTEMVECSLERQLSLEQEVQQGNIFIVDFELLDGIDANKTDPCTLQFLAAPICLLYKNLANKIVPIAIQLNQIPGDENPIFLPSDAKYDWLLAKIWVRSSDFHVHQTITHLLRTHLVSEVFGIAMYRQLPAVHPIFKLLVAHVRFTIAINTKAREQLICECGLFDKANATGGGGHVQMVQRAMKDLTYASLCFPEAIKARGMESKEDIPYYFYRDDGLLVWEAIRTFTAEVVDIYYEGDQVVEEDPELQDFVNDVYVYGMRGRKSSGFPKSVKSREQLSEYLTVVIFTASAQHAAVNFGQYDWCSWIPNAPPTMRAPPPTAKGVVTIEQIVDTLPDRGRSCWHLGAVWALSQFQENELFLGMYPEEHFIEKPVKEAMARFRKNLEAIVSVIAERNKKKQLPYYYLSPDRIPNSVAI
In words: 5-lipoxygenase activity (LTB4) in human peripheral blood mononuclear leukocytes (Assay 6). Type of data set: cell-based. Particulars: human PBMLs, A23187 30 μM, read-out: Inhibition of 5-LO (%). In short, it runs like this: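 Human PBMLs (5×10^6 cells, Ficoll-isolated) stimulated with 30 μM A23187 plus compound at 3 or 30 μM or 0.1% DMSO in HBSS pH 7.4, 37° C., 15 min. After NaOH neutralisation and centrifugation, supernatant LTB4 measured by enzyme immunoassay.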

The subject of data set [3] is IL-1α-induced PGE2 release. In words: IL-1α-induced PGE2 release in human diploid lung fibroblasts (WI-38) (Assay 5). In kind it is cell-based. Particulars: Homo sapiens, WI-38 cells, IL-1α 1 nM, overnight. In short, it runs like this:
(§1)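 WI-38 fibroblasts stimulated overnight at 37 °C with 1 nM IL-1α plus test compound at 3 and 30 μM in MEM with 10% FBS, pH 7.3; released PGE2 in supernatant quantified by radioimmunoassay as percent inhibition. Viability then checked by Alamar Blue, 4 h at 37 °C, fluorescence ex 530/em 590 nm.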

Data set [4] has as its system WI-38 cells. In words: Viability of WI-38 cells, Alamar Blue (Assay 5). In kind it is cell-based, human. In outline:
as §1
In general terms: Resazurin is reduced to fluorescent resorufin, in cell work by metabolically active cells.

Data set [5] deals with T1, TRPV1 receptor. In words: TRPV1 modulation in DRG neurones: CGRP release in absence and presence of capsaicin (Assay 2). Particulars: 20 min; for inhibition at 3 µM: 3 μM with capsaicin 1 μM; for inhibition at 3 µM / inhibition at 30 µM: −ve: inhibition, +ve: potentiation of capsaicin response, read-out: Effect of test compounds on capsaicin (1 μM)-induced CGRP release (%); for inhibition at 30 µM: 30 μM with capsaicin 1 μM; for Emax at 3 µM: test compound alone 3 μM; for Emax at 3 µM / Emax at 30 µM: rat DRG sensory neurones, read-out: CGRP release (% of capsaicin (1 μM) response); for Emax at 30 µM: test compound alone 30 μM. Further details: The culture used for this experiment contained sensory neurones, Schwann cells and fibroblasts; endogenous in cells; host or cells: primary rat DRG sensory neurone culture (with Schwann cells and fibroblasts). Type of data set: cell-based.

The subject of data set [6] is 5-HT-induced contractions in guinea pig ileum. Briefly: Inhibition of 5-HT-induced contractions in guinea pig ileum (Assay 3). Particulars: Cavia porcellus, 5-HT 2.6 μM, read-out: Inhibition of 5-HT-induced contraction (%). In short, it runs like this:
(§2)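 Isolated male guinea pig ileum strips in Krebs at 32° C, pH 7.4, 1 g resting tension, isotonic recording. Contraction to test compound (3 and 30 μM) alone recorded, then inhibition of responses to histamine 1.7 μM or 5-HT 2.6 μM (~EC60-70, 5 min) measured in its continued presence.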

Data set [7] has as its system histamine-induced contractions in guinea pig ileum. In words: Inhibition of histamine-induced contractions in guinea pig ileum (Assay 3). Particulars: Cavia porcellus, histamine 1.7 μM, read-out: Inhibition of histamine-induced contraction (%). In short, it runs like this: as §2

Each structure is given as a SMILES string.

T1 sequence (O35433 whole entry): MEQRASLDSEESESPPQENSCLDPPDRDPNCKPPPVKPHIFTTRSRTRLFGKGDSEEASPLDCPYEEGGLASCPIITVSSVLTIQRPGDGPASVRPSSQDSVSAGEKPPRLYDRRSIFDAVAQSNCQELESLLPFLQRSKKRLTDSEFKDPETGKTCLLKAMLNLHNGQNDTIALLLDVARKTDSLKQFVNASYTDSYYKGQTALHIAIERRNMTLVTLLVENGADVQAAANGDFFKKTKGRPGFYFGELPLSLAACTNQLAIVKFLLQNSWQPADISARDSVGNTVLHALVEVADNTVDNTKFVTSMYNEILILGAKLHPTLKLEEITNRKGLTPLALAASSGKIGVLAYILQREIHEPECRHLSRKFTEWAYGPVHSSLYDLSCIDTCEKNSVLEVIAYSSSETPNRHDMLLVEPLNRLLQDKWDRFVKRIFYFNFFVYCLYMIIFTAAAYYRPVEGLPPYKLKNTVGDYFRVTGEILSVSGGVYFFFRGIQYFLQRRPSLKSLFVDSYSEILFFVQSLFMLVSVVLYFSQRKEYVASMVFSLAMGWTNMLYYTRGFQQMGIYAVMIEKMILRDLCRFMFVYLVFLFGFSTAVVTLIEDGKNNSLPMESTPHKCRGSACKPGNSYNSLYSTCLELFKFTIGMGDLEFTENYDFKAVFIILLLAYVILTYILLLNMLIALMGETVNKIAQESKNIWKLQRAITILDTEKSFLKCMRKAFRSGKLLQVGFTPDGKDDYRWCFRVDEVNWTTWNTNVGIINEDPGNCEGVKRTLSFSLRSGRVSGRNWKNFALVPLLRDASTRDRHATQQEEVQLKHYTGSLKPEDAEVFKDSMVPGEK

Regarding `COc1cc(CCC(=O)CC(=O)C(C)(C)C)ccc1O` [Compound 2, 6,6-Dimethyl-1-(4-hydroxy-3-methoxyphenyl)-heptane-3,5-dione], the Emax in data set [1] worked out at 96%. In addition, the inhibition at 3 µM in data set [2] was 30%; in data set [3], 88%; in data set [5], -46%; in data set [6] it was 8%; in data set [7], 0%. In addition, the inhibition at 30 µM in data set [2] was 76%; in data set [3] it was 102%; in data set [5], -8%; in data set [6] it was 79%; in data set [7], 28%. The “Decrease in cell viability (%)” value in data set [4] (3 μM) is −2%; in data set [4] (30 μM), 4%. In data set [5], the Emax at 3 µM turned out to be 20%. For the same compound, the Emax at 30 µM in data set [5] was determined as 117%.
`COc1cc(CCC(=O)CC(=O)C2(C)CC2)ccc1O` [Compound 6, 5-(4-Hydroxy-3-methoxyphenyl)-1-(1-methylcyclopropyl)-pentane-1,3-dione]: the Emax in data set [1] turned out to be 24%. The inhibition at 3 µM in data set [2] is 47%; in data set [3], 88%; in data set [5], 15%; in data set [6], 0%; in data set [7], 0%. The inhibition at 30 µM in data set [2] came out at 78%; in data set [3] it was 102%; in data set [5] it was 28%; in data set [6], 34%; in data set [7], 12%. The “Decrease in cell viability (%)” value in data set [4] (3 μM) turned out to be 6%; in data set [4] (30 μM), 4%. For the same compound, in data set [5], the Emax at 3 µM turned out to be 52%. Moreover, the Emax at 30 µM in data set [5] came out at 49%.
`COc1cc(CCC(=O)C(C)C(=O)c2ccccc2)ccc1O` (centres unmarked) [Compound 11, 5-(4-Hydroxy-3-methoxy-phenyl)-2-methyl-1-phenyl-pentane-1,3-dione]: the Emax in data set [1] is 68%. In addition, the inhibition at 3 µM in data set [2] is 47%; in data set [3], 79%; in data set [5], 8%; in data set [6], 0%; in data set [7], 0%. The inhibition at 30 µM in data set [2] was determined as 92%; in data set [3] it was 100%; in data set [5] it was 12%; in data set [6], 53%; in data set [7] it was 32%. Besides, the “Decrease in cell viability (%)” value in data set [4] (3 μM) is given as 1%; in data set [4] (30 μM) it was −7%. Besides, in data set [5], the Emax at 3 µM is 24%. Also, in data set [5], the Emax at 30 µM was 111%.
With `COc1cc(CCC(=O)C(C)(C)C(=O)c2ccccc2)ccc1O` [Compound 32, 2,2-Dimethyl-5-(4-hydroxy-3-methoxy-phenyl)-1-phenyl-pentane-1,3-dione], the inhibition at 3 µM was determined as 45% in data set [2]; 67% in data set [3]; 47% in data set [5]; 9% in data set [6]; 15% in data set [7]. In addition, the inhibition at 30 µM is 96% in data set [2]; 101% in data set [3]; 40% in data set [5]; 93% in data set [6]; 89% in data set [7]. Also, the results for the “Decrease in cell viability (%)” value in data set [4] (3 μM) and in data set [4] (30 μM) were −4% and −3%, respectively. Further, in data set [5], the Emax at 3 µM stood at 22%. For the same compound, in data set [5], the Emax at 30 µM came to 21%.
Consider `COc1cc(CCC(=O)CC(=O)c2ccccc2)ccc1O` [Compound 69, 5-(4-Hydroxy-3-methoxyphenyl)-1-phenyl-pentane-1,3-dione], for which the Emax in data set [1] amounted to 38%. The inhibition at 3 µM in data set [2] is 89%; in data set [3], 89%; in data set [5], -49%; in data set [6], 9%; in data set [7], 9%. The inhibition at 30 µM in data set [2] was found to be 96%; in data set [3], 102%; in data set [5], 23%; in data set [6], 63%; in data set [7], 41%. For the same compound, the “Decrease in cell viability (%)” value in data set [4] (3 μM) came out at 3%; in data set [4] (30 μM) it was 4%. Further, the Emax at 3 µM in data set [5] was found to be 49%. Also, the Emax at 30 µM in data set [5] worked out at 36%.

These data come from patent US7589123B2, “Chemical compounds” (Phytopharm PLC, priority 2006, dated 2009).
